ChEMBL document CHEMBL6153091, “Cytotoxic Stilbenoids, Hetero- and Homodimers of Homoisoflavonoids from Prospero autumnale” (J Nat Prod, 2025)
Calls of active or inactive are those of the source.

Assays:
Type in all cases: functional, cell-based
[1] = test system: PC-3; experiment: Induction of apoptosis in human PC-3 cells at IC50 concentration incubated for 48 hrs by Annexin V-FITC/PI staining based flow cytometry
[2] = test system: PC-3; experiment: Induction of cell cycle arrest in human PC-3 cells assessed as accumulation of cells at S phase incubated for 48 hrs by flow cytometry
[3] = test system: LoVo; experiment: Induction of necrosis in human LoVo cells at IC50 concentration incubated for 48 hrs by Annexin V-FITC/PI staining based flow cytometry
[4] = test system: DU-145; experiment: Induction of apoptosis in human DU-145 cells at IC50 concentration incubated for 48 hrs by Annexin V-FITC/PI staining based flow cytometry
[5] = test system: DU-145; experiment: Induction of cell cycle arrest in human DU-145 cells assessed as accumulation of cells at G2/M phase incubated for 48 hrs by flow cytometry
[6] = test system: DU-145; experiment: Induction of cell cycle arrest in human DU-145 cells assessed as accumulation of cells at S phase incubated for 48 hrs by flow cytometry
[7] = test system: DU-145; experiment: Induction of necrosis in human DU-145 cells at IC50 concentration incubated for 48 hrs by Annexin V-FITC/PI staining based flow cytometry
[8] = test system: LoVo; experiment: Induction of apoptosis in human LoVo cells at IC50 concentration incubated for 48 hrs by Annexin V-FITC/PI staining based flow cytometry
[9] = test system: LoVo; experiment: Induction of cell cycle arrest in human LoVo cells assessed as accumulation of cells at S phase incubated for 48 hrs by flow cytometry
[10] = test system: PC-3; experiment: Induction of necrosis in human PC-3 cells at IC50 concentration incubated for 48 hrs by Annexin V-FITC/PI staining based flow cytometry
[11] = test system: MDA-MB-231; experiment: Induction of cell cycle arrest in human MDA-MB-231 cells assessed as accumulation of cells at S phase incubated for 48 hrs by flow cytometry
[12] = test system: MDA-MB-231; experiment: Induction of apoptosis in human MDA-MB-231 cells at IC50 concentration incubated for 48 hrs by Annexin V-FITC/PI staining based flow cytometry
[13] = test system: LoVo; experiment: Induction of cell cycle arrest in human LoVo cells assessed as decrease in accumulation of cells at G2/M phase incubated for 48 hrs by flow cytometry
[14] = test system: MDA-MB-231; experiment: Induction of cell cycle arrest in human MDA-MB-231 cells assessed as decrease in accumulation of cells at G2/M phase incubated for 48 hrs by flow cytometry
[15] = test system: MDA-MB-231; experiment: Induction of necrosis in human MDA-MB-231 cells at IC50 concentration incubated for 48 hrs by Annexin V-FITC/PI staining based flow cytometry
[16] = test system: Hep 3B2; experiment: Induction of cell cycle arrest in human Hep3B cells assessed as decrease in accumulation of cells at G0/G1 phase incubated for 48 hrs by flow cytometry
[17] = test system: Hep 3B2; experiment: Induction of necrosis in human Hep3B cells at IC50 concentration incubated for 48 hrs by Annexin V-FITC/PI staining based flow cytometry
[18] = test system: Hep 3B2; experiment: Induction of cell cycle arrest in human Hep3B cells assessed as decrease in accumulation of cells at S phase incubated for 48 hrs by flow cytometry
[19] = test system: Hep 3B2; experiment: Induction of early apoptosis in human Hep3B cells at IC50 concentration incubated for 48 hrs by Annexin V-FITC/PI staining based flow cytometry
[20] = test system: Hep 3B2; experiment: Induction of cell cycle arrest in human Hep3B cells assessed as increase in accumulation of cells at G2/M phase incubated for 48 hrs by flow cytometry
[21] = test system: HCT-116; experiment: Induction of apoptosis in human HCT-116 cells at IC50 concentration incubated for 48 hrs by Annexin V-FITC/PI staining based flow cytometry
[22] = test system: HepG2; experiment: Induction of necrosis in human HepG2 cells at IC50 concentration incubated for 48 hrs by Annexin V-FITC/PI staining based flow cytometry
[23] = test system: LoVo; experiment: Induction of cell cycle arrest in human LoVo cells assessed as accumulation of cells at G0/G1 phase incubated for 48 hrs by flow cytometry
[24] = test system: MCF7; experiment: Induction of necrosis in human MCF7 cells at IC50 concentration incubated for 48 hrs by Annexin V-FITC/PI staining based flow cytometry
[25] = test system: MCF7; experiment: Induction of apoptosis in human MCF7 cells at IC50 concentration incubated for 48 hrs by Annexin V-FITC/PI staining based flow cytometry
[26] = test system: MCF7; experiment: Induction of cell cycle arrest in human MCF7 cells assessed as accumulation of cells at G0/G1 phase incubated for 48 hrs by flow cytometry
[27] = test system: HepG2; experiment: Induction of late apoptosis in human HepG2 cells at IC50 concentration incubated for 48 hrs by Annexin V-FITC/PI staining based flow cytometry
[28] = test system: MDA-MB-231; experiment: Induction of cell cycle arrest in human MDA-MB-231 cells assessed as accumulation of cells at G0/G1 phase incubated for 48 hrs by flow cytometry
[29] = test system: HCT-116; experiment: Induction of cell cycle arrest in human HCT-116 cells assessed as accumulation of cells at G0/G1 phase incubated for 48 hrs by flow cytometry
[30] = test system: HCT-116; experiment: Induction of necrosis in human HCT-116 cells at IC50 concentration incubated for 48 hrs by Annexin V-FITC/PI staining based flow cytometry
[31] = test system: HepG2; experiment: Induction of cell cycle arrest in human HepG2 cells assessed as decrease in accumulation of cells at S phase incubated for 48 hrs by flow cytometry

Measured: Activity

COc1cc(/C=C/c2ccc(O)cc2)cc(O)c1C
active: [1] | [2] | [3] | [4] | [5] | [6] | [7] | [8] | [9] | [10]

COc1cc(O)cc(/C=C/c2ccc(O)cc2)c1
active: [3] | [11] | [12] | [13] | [14] | [15] | [8] | [9]

O=C1/C(=C/c2ccc(O)cc2)COc2cc(O)cc(O)c21
active: [16] | [17] | [18] | [19] | [20]

COc1ccc([C@H]2c3c(/C=C/c4ccc(O)cc4)cc(OC)c(C)c3O[C@@H]3Oc4cc(O)cc(O)c4C(=O)[C@@H]32)cc1
active: [3] | [21] | [22] | [23] | [24] | [25] | [26] | [27] | [28] | [8] | [29] | [30] | [31]
